According to ChEMBL document CHEMBL3885861, “Open TG-GATES”:

Species on record: Rattus norvegicus
Assay: Open TG-GATES - Regimen: Single
Type: toxicity, organism-based, Sprague-Dawley
Set-up: regimen Single, gender Male, age 6 weeks
Details: in vivo, po, 3 mg/kg, route gavage, dose level Low; for APTT / Bas / Eos / Fbg / Hb / Ht / Lym / MCH / MCHC / MCV / Mono / Neu / PT / Plat / RBC / Ret / WBC: tissue Blood; for KIDNEY_L / KIDNEY_R / KIDNEY_TOTAL: tissue Kidney; for LIVER: tissue Liver; for A/G / ALP / ALT / AST / BUN / CRE / Ca / Cl / DBIL / GLC / IP / K / LDH / Na / PL / RALB / TBIL / TC / TG / TP / gamma-GTP: tissue Plasma

Compound C=CCO [ALLYL ALCOHOL] has a TERMINAL_BW (3 h) of 223.5 g, an APTT (3 h) of 18.8 s and a Bas (3 h) of 0%. For the same compound, the Eos (3 h) was 1%, the Fbg (3 h) was 234.6 mg/dL and the Hb (3 h) was 13.8 g/dL. It also gave a Ht (3 h) of 38.7%, a Lym (3 h) of 76% and an MCH (3 h) of 21.7 pg. For the same compound, the MCHC (3 h) was 35.6%, the MCV (3 h) was 60.9 fL and the Mono (3 h) was 3.2%. The Neu (3 h) was 19.8%, the PT (3 h) was 11.8 s and the Plat (3 h) was 126.8 x10_4/uL. The RBC (3 h) was 635.2 x10_4/ul, the Ret (3 h) was 6.4% and the WBC (3 h) was 81.6 x10_2/uL. The KIDNEY_L (3 h) was 1 g, the KIDNEY_R (3 h) was 1 g and the KIDNEY_TOTAL (3 h) was 2 g. The LIVER (3 h) was 10.2 g, the A/G (3 h) was 1.6 and the ALP (3 h) was 1094.8 IU/L. It also gave an ALT (3 h) of 37.4 IU/L, an AST (3 h) of 67.6 IU/L and a BUN (3 h) of 11.4 mg/dL. The CRE (3 h) was 0.4 mg/dL, the Ca (3 h) was 11.2 mg/dL and the Cl (3 h) was 100.6 meq/L. For the same compound, the DBIL (3 h) was 0.5 mg/dL, the GLC (3 h) was 195.2 mg/dL and the IP (3 h) was 8.6 mg/dL. It also gave a K (3 h) of 3.7 meq/L, an LDH (3 h) of 235.4 IU/L and a Na (3 h) of 139.8 meq/L. For the same compound, the PL (3 h) was 181 mg/dL, the RALB (3 h) was 3.5 g/dL and the TBIL (3 h) was 0.6 mg/dL. For the same compound, the TC (3 h) was 81 mg/dL, the TG (3 h) was 262 mg/dL and the TP (3 h) was 5.7 g/dL. For the same compound, the gamma-GTP (3 h) was 0.6 IU/L, the TERMINAL_BW (6 h) was 220.1 g and the APTT (6 h) was 19 s. The Bas (6 h) was 0%, the Eos (6 h) was 1% and the Fbg (6 h) was 220.8 mg/dL. It also gave a Hb (6 h) of 13.2 g/dL, a Ht (6 h) of 38.3% and a Lym (6 h) of 76%. The MCH (6 h) was 21 pg, the MCHC (6 h) was 34.3% and the MCV (6 h) was 61 fL. The Mono (6 h) was 3.8%, the Neu (6 h) was 18.8% and the PT (6 h) was 12.2 s. For the same compound, the Plat (6 h) was 122.5 x10_4/uL, the RBC (6 h) was 627.4 x10_4/ul and the Ret (6 h) was 7.1%. It also gave a WBC (6 h) of 102.5 x10_2/uL, a KIDNEY_L (6 h) of 0.9 g and a KIDNEY_R (6 h) of 1 g. It also gave a KIDNEY_TOTAL (6 h) of 1.9 g, an LIVER (6 h) of 9.4 g and an A/G (6 h) of 1.6. It also gave an ALP (6 h) of 1095 IU/L, an ALT (6 h) of 33 IU/L and an AST (6 h) of 70.6 IU/L. For the same compound, the BUN (6 h) was 7.8 mg/dL, the CRE (6 h) was 0.4 mg/dL and the Ca (6 h) was 10.7 mg/dL. It also gave a Cl (6 h) of 102.8 meq/L, a DBIL (6 h) of 0.1 mg/dL and a GLC (6 h) of 192.4 mg/dL. The IP (6 h) was 8.7 mg/dL, the K (6 h) was 3.9 meq/L and the LDH (6 h) was 222.4 IU/L. For the same compound, the Na (6 h) was 141.2 meq/L, the PL (6 h) was 149.6 mg/dL and the RALB (6 h) was 3.4 g/dL. The TBIL (6 h) was 0.2 mg/dL, the TC (6 h) was 76.4 mg/dL and the TG (6 h) was 77.8 mg/dL. The TP (6 h) was 5.5 g/dL, the gamma-GTP (6 h) was 1 IU/L and the TERMINAL_BW (9 h) was 215.7 g. The APTT (9 h) was 18.7 s, the Bas (9 h) was 0% and the Eos (9 h) was 1.2%. The Fbg (9 h) was 221.8 mg/dL, the Hb (9 h) was 13.4 g/dL and the Ht (9 h) was 39.1%. The Lym (9 h) was 75.8%, the MCH (9 h) was 20.9 pg and the MCHC (9 h) was 34.3%. The MCV (9 h) was 61 fL, the Mono (9 h) was 3.2% and the Neu (9 h) was 20.2%. The PT (9 h) was 12.2 s, the Plat (9 h) was 124 x10_4/uL and the RBC (9 h) was 640.4 x10_4/ul. The Ret (9 h) was 6.9%, the WBC (9 h) was 65 x10_2/uL and the KIDNEY_L (9 h) was 1 g. For the same compound, the KIDNEY_R (9 h) was 1 g, the KIDNEY_TOTAL (9 h) was 2 g and the LIVER (9 h) was 9.1 g. For the same compound, the A/G (9 h) was 1.5, the ALP (9 h) was 994.6 IU/L and the ALT (9 h) was 27.6 IU/L. For the same compound, the AST (9 h) was 59.2 IU/L, the BUN (9 h) was 9.6 mg/dL and the CRE (9 h) was 0.3 mg/dL. It also gave a Ca (9 h) of 10.5 mg/dL, a Cl (9 h) of 101.8 meq/L and a DBIL (9 h) of 0.08 mg/dL. It also gave a GLC (9 h) of 210.2 mg/dL, an IP (9 h) of 10.7 mg/dL and a K (9 h) of 3.8 meq/L. The LDH (9 h) was 169.2 IU/L, the Na (9 h) was 140.8 meq/L and the PL (9 h) was 143 mg/dL. It also gave an RALB (9 h) of 3.3 g/dL, a TBIL (9 h) of 0.1 mg/dL and a TC (9 h) of 71.8 mg/dL. The TG (9 h) was 62 mg/dL, the TP (9 h) was 5.5 g/dL and the gamma-GTP (9 h) was 0.8 IU/L. It also gave a TERMINAL_BW (24 h) of 232.9 g, an APTT (24 h) of 20.4 s and a Bas (24 h) of 0%. It also gave an Eos (24 h) of 1%, a Fbg (24 h) of 230 mg/dL and a Hb (24 h) of 13.6 g/dL. The Ht (24 h) was 39.9%, the Lym (24 h) was 78.8% and the MCH (24 h) was 20.5 pg. The MCHC (24 h) was 34%, the MCV (24 h) was 60.4 fL and the Mono (24 h) was 3.4%. The Neu (24 h) was 16.4%, the PT (24 h) was 11.7 s and the Plat (24 h) was 127.6 x10_4/uL. For the same compound, the RBC (24 h) was 660.4 x10_4/ul, the Ret (24 h) was 6.2% and the WBC (24 h) was 97.6 x10_2/uL. For the same compound, the KIDNEY_L (24 h) was 1 g, the KIDNEY_R (24 h) was 1 g and the KIDNEY_TOTAL (24 h) was 2 g. It also gave an LIVER (24 h) of 11.2 g, an A/G (24 h) of 1.5 and an ALP (24 h) of 863.4 IU/L. The ALT (24 h) was 35 IU/L, the AST (24 h) was 64.4 IU/L and the BUN (24 h) was 16 mg/dL. For the same compound, the CRE (24 h) was 0.4 mg/dL, the Ca (24 h) was 10.9 mg/dL and the Cl (24 h) was 101.8 meq/L. The DBIL (24 h) was 0.098 mg/dL, the GLC (24 h) was 202.8 mg/dL and the IP (24 h) was 7.2 mg/dL. The K (24 h) was 4 meq/L, the LDH (24 h) was 204.6 IU/L and the Na (24 h) was 141 meq/L. It also gave a PL (24 h) of 154.4 mg/dL, an RALB (24 h) of 3.4 g/dL and a TBIL (24 h) of 0.2 mg/dL. The TC (24 h) was 77 mg/dL, the TG (24 h) was 118.2 mg/dL and the TP (24 h) was 5.6 g/dL. The gamma-GTP (24 h) was 0.8 IU/L.
